Reference: PubChem BioAssay AID1919004 (Molecular Pharmacology Branch, DTP, NCI, 2023)

Tested on: 883617-216-R-J1-PDC complex spheroids, growth, % test/control
Assay: Anticancer human tumor 883617-216-R-J1-PDC patient-derived bladder carcinoma cell line growth inhibition [AhR]
Details: for IC50: curve of first compound; for viability, T/C: stronger effect = lower value; active = viability on the fitted dose curve at most 10% of control; inactive = the rest
Method in brief: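 Complex tumor spheroids co-cultured with HUVEC and human MSC stroma; AhR antagonists tested in combination with standard-of-care and investigational agents. Top concentration at or near clinical Cmax (else 10 microM), half-log dilutions; growth expressed as percent test/control.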

[1] = second compound 0.1 µM, first compound 0.0316 µM
[2] = second compound 0.1 µM, first compound 0.1 µM
[3] = second compound 0.1 µM, first compound 0.316 µM
[4] = second compound 0.1 µM, first compound 1 µM
[5] = second compound 0.1 µM, first compound 3.16 µM
[6] = second compound 0.1 µM, first compound 10 µM
[7] = second compound 0.316 µM, first compound 0.0316 µM
[8] = second compound 0.316 µM, first compound 0.1 µM
[9] = second compound 0.316 µM, first compound 0.316 µM
[10] = second compound 0.316 µM, first compound 1 µM
[11] = second compound 0.316 µM, first compound 3.16 µM
[12] = second compound 0.316 µM, first compound 10 µM
[13] = second compound 1 µM, first compound 0.0316 µM
[14] = second compound 1 µM, first compound 0.1 µM
[15] = second compound 1 µM, first compound 0.316 µM
[16] = second compound 1 µM, first compound 1 µM
[17] = second compound 1 µM, first compound 3.16 µM
[18] = second compound 1 µM, first compound 10 µM
[19] = second compound 3.16 µM, first compound 0.0316 µM
[20] = second compound 3.16 µM, first compound 0.1 µM
[21] = second compound 3.16 µM, first compound 0.316 µM
[22] = second compound 3.16 µM, first compound 1 µM
[23] = second compound 3.16 µM, first compound 3.16 µM
[24] = second compound 3.16 µM, first compound 10 µM
[25] = second compound 10 µM, first compound 0.0316 µM
[26] = second compound 10 µM, first compound 0.1 µM
[27] = second compound 10 µM, first compound 0.316 µM
[28] = second compound 10 µM, first compound 1 µM
[29] = second compound 10 µM, first compound 3.16 µM
[30] = second compound 10 µM, first compound 10 µM
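Also: exposure lasted 7 days after dosing on day 3 of spheroid growth.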

CC(C)c1c(-c2ccccc2)nc2c(C#N)c[nH]n2c1=O + CC(CO)NC(=O)c1cc(-c2ccc(Cl)cc2)nn(-c2cnn(C)c2)c1=O
> 10000 nM: IC50 (second compound 0.1 µM) | IC50 (second compound 0.316 µM) | IC50 (second compound 1 µM) | IC50 (second compound 3.16 µM) | IC50 (second compound 10 µM)
inactive: viability, T/C [1] 77.3% | viability, T/C [2] 71.2% | viability, T/C [3] 66.1% | viability, T/C [4] 70.4% | viability, T/C [5] 84.5% | viability, T/C [6] 96% | viability, T/C [7] 94.8% | viability, T/C [8] 85.2% | viability, T/C [9] 65.7% | viability, T/C [10] 74% | viability, T/C [11] 91.4% | viability, T/C [12] 75.6% | viability, T/C [13] 59.7% | viability, T/C [14] 97.8% | viability, T/C [15] 103% | viability, T/C [16] 92.6% | viability, T/C [17] 87.1% | viability, T/C [18] 78.3% | viability, T/C [19] 95.2% | viability, T/C [20] 92.5% | viability, T/C [21] 75.2% | viability, T/C [22] 79.3% | viability, T/C [23] 51% | viability, T/C [24] 57.7% | viability, T/C [25] 79.4% | viability, T/C [26] 87.1% | viability, T/C [27] 106% | viability, T/C [28] 57.8% | viability, T/C [29] 64% | viability, T/C [30] 62.5%

CC1COCCN1c1cc(-c2ccnn2C)c2ccnc(-c3ccn[nH]3)c2n1 (stereo not given) + CC(CO)NC(=O)c1cc(-c2ccc(Cl)cc2)nn(-c2cnn(C)c2)c1=O
> 1000 nM: IC50 (second compound 0.1 µM) | IC50 (second compound 0.316 µM) | IC50 (second compound 1 µM) | IC50 (second compound 3.16 µM) | IC50 (second compound 10 µM)
inactive: viability, T/C (second compound 0.1 µM, first compound 0.00316 µM) 70.5% | viability, T/C (second compound 0.1 µM, first compound 0.01 µM) 80.7% | viability, T/C [1] 55.6% | viability, T/C [2] 87.4% | viability, T/C [3] 73.9% | viability, T/C [4] 56.8% | viability, T/C (second compound 0.316 µM, first compound 0.00316 µM) 80.9% | viability, T/C (second compound 0.316 µM, first compound 0.01 µM) 85.6% | viability, T/C [7] 88.2% | viability, T/C [8] 63.8% | viability, T/C [9] 48.5% | viability, T/C [10] 53.1% | viability, T/C (second compound 1 µM, first compound 0.00316 µM) 88.8% | viability, T/C (second compound 1 µM, first compound 0.01 µM) 82.5% | viability, T/C [13] 114% | viability, T/C [14] 100% | viability, T/C [15] 53.5% | viability, T/C [16] 54% | viability, T/C (second compound 3.16 µM, first compound 0.00316 µM) 58.3% | viability, T/C (second compound 3.16 µM, first compound 0.01 µM) 69.8% | viability, T/C [19] 72.8% | viability, T/C [20] 73.2% | viability, T/C [21] 61.7% | viability, T/C [22] 53.2% | viability, T/C (second compound 10 µM, first compound 0.00316 µM) 65.8% | viability, T/C (second compound 10 µM, first compound 0.01 µM) 64.2% | viability, T/C [25] 72.8% | viability, T/C [26] 53.8% | viability, T/C [27] 54.4% | viability, T/C [28] 72%

COc1ccc([C@@H](O)c2cc(-c3ncnc4cc(N5CCOCC5)ccc34)c(F)cc2Cl)nn1 + CC(CO)NC(=O)c1cc(-c2ccc(Cl)cc2)nn(-c2cnn(C)c2)c1=O
inactive: viability, T/C [1] 83% | viability, T/C [2] 94.7% | viability, T/C [3] 76.8% | viability, T/C [4] 75.9% | viability, T/C [5] 60.1% | viability, T/C [6] 49.1% | viability, T/C [7] 69.9% | viability, T/C [8] 128% | viability, T/C [9] 83.1% | viability, T/C [10] 63.9% | viability, T/C [11] 124% | viability, T/C [12] 42.2% | viability, T/C [13] 86.4% | viability, T/C [14] 99.7% | viability, T/C [15] 55.9% | viability, T/C [16] 58.9% | viability, T/C [17] 61.4% | viability, T/C [18] 42.1% | viability, T/C [19] 64.8% | viability, T/C [20] 135% | viability, T/C [21] 73.6% | viability, T/C [22] 61.7% | viability, T/C [23] 37.1% | viability, T/C [24] 51.6% | viability, T/C [25] 119% | viability, T/C [26] 81.7% | viability, T/C [27] 88.7% | viability, T/C [28] 73.4% | viability, T/C [29] 51.1% | viability, T/C [30] 32.4%
3520 nM: IC50 (second compound 10 µM)
9070 nM: IC50 (second compound 0.1 µM)
10000 nM: IC50 (second compound 1 µM) | IC50 (second compound 3.16 µM)
8400 nM: IC50 (second compound 0.316 µM)

O=C(C=Cn1cnc(-c2cc(C(F)(F)F)cc(C(F)(F)F)c2)n1)NNc1cnccn1 + CC(CO)NC(=O)c1cc(-c2ccc(Cl)cc2)nn(-c2cnn(C)c2)c1=O
180 nM: IC50 (second compound 3.16 µM)
165 nM: IC50 (second compound 10 µM)
155 nM: IC50 (second compound 0.1 µM)
351 nM: IC50 (second compound 0.316 µM)
inactive: viability, T/C (second compound 0.1 µM, first compound 0.00949 µM) 93.7% | viability, T/C (second compound 0.1 µM, first compound 0.03 µM) 78.1% | viability, T/C (second compound 0.1 µM, first compound 0.0949 µM) 56.8% | viability, T/C (second compound 0.1 µM, first compound 0.3 µM) 40.4% | viability, T/C (second compound 0.1 µM, first compound 0.949 µM) 34.5% | viability, T/C (second compound 0.1 µM, first compound 3 µM) 29.7% | viability, T/C (second compound 0.316 µM, first compound 0.00949 µM) 109% | viability, T/C (second compound 0.316 µM, first compound 0.03 µM) 79.4% | viability, T/C (second compound 0.316 µM, first compound 0.0949 µM) 71% | viability, T/C (second compound 0.316 µM, first compound 0.3 µM) 50.1% | viability, T/C (second compound 0.316 µM, first compound 0.949 µM) 37.8% | viability, T/C (second compound 0.316 µM, first compound 3 µM) 37.2% | viability, T/C (second compound 1 µM, first compound 0.00949 µM) 60.4% | viability, T/C (second compound 1 µM, first compound 0.03 µM) 76.3% | viability, T/C (second compound 1 µM, first compound 0.0949 µM) 65% | viability, T/C (second compound 1 µM, first compound 0.3 µM) 37.2% | viability, T/C (second compound 1 µM, first compound 0.949 µM) 46.8% | viability, T/C (second compound 1 µM, first compound 3 µM) 34.5% | viability, T/C (second compound 3.16 µM, first compound 0.00949 µM) 65.1% | viability, T/C (second compound 3.16 µM, first compound 0.03 µM) 61.9% | viability, T/C (second compound 3.16 µM, first compound 0.0949 µM) 71.2% | viability, T/C (second compound 3.16 µM, first compound 0.3 µM) 32.4% | viability, T/C (second compound 3.16 µM, first compound 0.949 µM) 50.3% | viability, T/C (second compound 3.16 µM, first compound 3 µM) 29.1% | viability, T/C (second compound 10 µM, first compound 0.00949 µM) 72.3% | viability, T/C (second compound 10 µM, first compound 0.03 µM) 46.9% | viability, T/C (second compound 10 µM, first compound 0.0949 µM) 75.3% | viability, T/C (second compound 10 µM, first compound 0.3 µM) 34.1% | viability, T/C (second compound 10 µM, first compound 0.949 µM) 37.5% | viability, T/C (second compound 10 µM, first compound 3 µM) 24.9%
187 nM: IC50 (second compound 1 µM)
